Where “and” joins values, the source holds several entries; their conditions need not be identical. Equal values may be shown once.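 1) Cells in 96-well plates. 2) Compound, 48 h, 5 concentrations. 3) Linear interpolation between surrounding doses. 4) Unreached endpoint = highest concentration. The concentration for 50% growth inhibition is given as GI50.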 Calls of active or inactive are those of the source. No stated cut-off is given here; in the data, active = GI50 up to about 1.1 µM and inactive = higher.
Key:
Assay in all cases: DTP human tumour cell line panel, 48 h
RPMI-8226 = system: RPMI-8226
ACHN = system: ACHN
SN12C = system: SN12C
HOP-62 = system: HOP-62
HL-60 = system: HL-60
UACC-62 = system: UACC-62
RXF 631 = system: RXF 631
SF-268 = system: SF-268
SK-OV-3 = system: SK-OV-3
NCI-H522 = system: NCI-H522
M14 = system: M14
COLO 205 = system: COLO 205
SK-MEL-2 = system: SK-MEL-2
CAKI-1 = system: CAKI-1
DMS-273 = system: DMS-273
SK-MEL-28 = system: SK-MEL-28
HCC 2998 = system: HCC 2998
NCI-H23 = system: NCI-H23
786-0 = system: 786-0
HOP-92 = system: HOP-92
DMS-114 = system: DMS-114
SNB-78 = system: SNB-78
LXFL 529 = system: LXFL 529
UO-31 = system: UO-31
OVCAR-4 = system: OVCAR-4
XF498 = system: XF498
M19-MEL = system: M19-MEL
SR = system: SR
HCT-116 = system: HCT-116
SNB-75 = system: SNB-75
MOLT-4 = system: MOLT-4
DLD-1 = system: DLD-1
IGROV-1 = system: IGROV-1
SF-539 = system: SF-539
NCI-H226 = system: NCI-H226
A498 = system: A498
CCRF-CEM = system: CCRF-CEM
K562 = system: K562
Malme-3M = system: Malme-3M
HT-29 = system: HT-29
HCT-15 = system: HCT-15
OVCAR-5 = system: OVCAR-5
KM12 = system: KM12
A549 = system: A549
SK-MEL-5 = system: SK-MEL-5
RXF 393 = system: RXF 393
U-251 = system: U-251
EKVX = system: EKVX
KM-20L2 = system: KM-20L2
UACC-257 = system: UACC-257
OVCAR-3 = system: OVCAR-3
SW-620 = system: SW-620
SF-295 = system: SF-295
NCI-H460 = system: NCI-H460
OVCAR-8 = system: OVCAR-8
TK-10 = system: TK-10
MDA-N = system: MDA-N
PC-3 = system: PC-3
MDA-MB-231 = system: MDA-MB-231
NCI/ADR-RES = system: NCI/ADR-RES
BT-549 = system: BT-549
T47D = system: T47D
MCF7 = system: MCF7
DU-145 = system: DU-145
LOX IMVI = system: LOX IMVI
Hs-578T = system: Hs-578T
MDA-MB-435 = system: MDA-MB-435

## Cc1cn(C2CC(N(C)C)C(CO)O2)c(=O)[nH]c1=O (centres undefined)
RPMI-8226
  GI50: > 100 µM (inactive)
ACHN
  GI50: > 100 µM (inactive)
SN12C
  GI50: > 100 µM (inactive)
HOP-62
  GI50: > 100 µM (inactive)
HL-60
  GI50: > 100 µM (inactive)
UACC-62
  GI50: > 100 µM (inactive)
RXF 631
  GI50: > 100 µM (inactive)
SF-268
  GI50: > 100 µM (inactive)
SK-OV-3
  GI50: > 100 µM (inactive)
NCI-H522
  GI50: > 100 µM (inactive)
M14
  GI50: > 100 µM (inactive)
COLO 205
  GI50: > 100 µM (inactive)
SK-MEL-2
  GI50: > 100 µM (inactive)
CAKI-1
  GI50: > 100 µM (inactive)
DMS-273
  GI50: > 100 µM (inactive)
SK-MEL-28
  GI50: > 100 µM (inactive)
HCC 2998
  GI50: > 100 µM (inactive)
NCI-H23
  GI50: > 100 µM (inactive)
786-0
  GI50: > 100 µM (inactive)
HOP-92
  GI50: > 100 µM (inactive)
DMS-114
  GI50: > 100 µM (inactive)
SNB-78
  GI50: > 100 µM (inactive)
LXFL 529
  GI50: > 100 µM (inactive)
UO-31
  GI50: > 100 µM (inactive)
OVCAR-4
  GI50: > 100 µM (inactive)
XF498
  GI50: > 100 µM (inactive)
M19-MEL
  GI50: > 100 µM (inactive)
SR
  GI50: > 100 µM (inactive)
HCT-116
  GI50: > 100 µM (inactive)
SNB-75
  GI50: > 100 µM (inactive)
MOLT-4
  GI50: > 100 µM (inactive)
DLD-1
  GI50: > 100 µM (inactive)
IGROV-1
  GI50: > 100 µM (inactive)
SF-539
  GI50: > 100 µM (inactive)
NCI-H226
  GI50: > 100 µM (inactive)
A498
  GI50: > 100 µM (inactive)
CCRF-CEM
  GI50: > 100 µM (inactive)
K562
  GI50: > 100 µM (inactive)
Malme-3M
  GI50: > 100 µM (inactive)

## Cc1[nH]c2ccccc2c1-c1n[nH]c(=O)c2ccccc12
RPMI-8226
  GI50: 20.8 µM (inactive)
HT-29
  GI50: 24.1 µM (inactive)
ACHN
  GI50: 25.7 µM (inactive)
HOP-62
  GI50: 6.56 µM (inactive)
HCT-15
  GI50: 5.33 µM
HL-60
  GI50: 7.82 µM (inactive)
OVCAR-5
  GI50: 46.5 µM (inactive)
UACC-62
  GI50: 19.5 µM (inactive)
KM12
  GI50: 11.3 µM (inactive)
RXF 631
  GI50: 13 µM (inactive)
SK-OV-3
  GI50: 25.1 µM (inactive)
M14
  GI50: 21 µM (inactive)
SK-MEL-2
  GI50: 31.7 µM (inactive)
A549
  GI50: 24.6 µM (inactive)
CAKI-1
  GI50: 13.4 µM (inactive)
DMS-273
  GI50: 8.79 µM (inactive)
SK-MEL-28
  GI50: 26.5 µM (inactive)
SK-MEL-5
  GI50: 15.5 µM (inactive)
RXF 393
  GI50: 12.9 µM (inactive)
HCC 2998
  GI50: 30.4 µM (inactive)
NCI-H23
  GI50: 26 µM (inactive)
786-0
  GI50: 27 µM (inactive)
DMS-114
  GI50: 14.8 µM (inactive)
SNB-78
  GI50: 46.8 µM (inactive)
U-251
  GI50: 31.5 µM (inactive)
LXFL 529
  GI50: 21.6 µM (inactive)
UO-31
  GI50: 17.3 µM (inactive)
OVCAR-4
  GI50: 29.3 µM (inactive)
XF498
  GI50: 27.1 µM (inactive)
M19-MEL
  GI50: 29 µM (inactive)
HCT-116
  GI50: 13.3 µM (inactive)
EKVX
  GI50: 17.9 µM (inactive)
SNB-75
  GI50: 15.3 µM (inactive)
MOLT-4
  GI50: 20.5 µM (inactive)
DLD-1
  GI50: 15.9 µM (inactive)
IGROV-1
  GI50: 31.5 µM (inactive)
KM-20L2
  GI50: 25.2 µM (inactive)
UACC-257
  GI50: 25.1 µM (inactive)
SF-539
  GI50: 24.3 µM (inactive)
OVCAR-3
  GI50: 23.3 µM (inactive)
NCI-H226
  GI50: 18.7 µM (inactive)
A498
  GI50: 19.8 µM (inactive)
SW-620
  GI50: 16.1 µM (inactive)
SF-295
  GI50: 23.3 µM (inactive)
CCRF-CEM
  GI50: 22.9 µM (inactive)
K562
  GI50: 5.25 µM (inactive)
NCI-H460
  GI50: 22.9 µM (inactive)
OVCAR-8
  GI50: 32.5 µM (inactive)
Malme-3M
  GI50: 22.3 µM (inactive)
TK-10
  GI50: 37.1 µM (inactive)

## CC(C)(O)/C=C/C(=O)[C@](C)(O)[C@H]1[C@H](O)C[C@@]2(C)[C@@H]3CC=C4[C@@H](C=C(O)C(=O)C4(C)C)[C@]3(C)C(=O)C[C@]12C [CUCURBITACIN I]
RPMI-8226
  GI50: 281 nM (active) and 318 nM (active)
HT-29
  GI50: 538 nM (active) and 321 nM (active)
OVCAR-5
  GI50: 3.03 µM (inactive) and 3.24 µM (inactive)
UACC-62
  GI50: 805 nM (active) and 607 nM (active)
KM12
  GI50: 1.9 µM (inactive) and 1.12 µM (inactive)
RXF 631
  GI50: 372 nM (active) and 536 nM (active)
SF-268
  GI50: 475 nM (active) and 251 nM (active)
MDA-N
  GI50: < 0.01 µM (active)
M14
  GI50: 548 nM (active) and 303 nM (active)
PC-3
  GI50: 0.0238 µM (active)
SK-MEL-2
  GI50: 442 nM (active) and 237 nM (active)
A549
  GI50: 493 nM (active) and 271 nM (active)
MDA-MB-231
  GI50: 0.0223 µM (active)
DMS-273
  GI50: 243 nM (active) and 218 nM (active)
NCI/ADR-RES
  GI50: 0.126 µM (active)
RXF 393
  GI50: 225 nM (active) and 440 nM (active)
NCI-H23
  GI50: 2.38 µM (inactive) and 1.33 µM (inactive)
BT-549
  GI50: 0.0147 µM (active)
DMS-114
  GI50: 1.21 µM (inactive) and 698 nM (active)
SNB-78
  GI50: 303 nM (active) and 528 nM (active)
T47D
  GI50: 0.104 µM (active)
MCF7
  GI50: 0.0245 µM (active)
LXFL 529
  GI50: 339 nM (active) and 513 nM (active)
XF498
  GI50: 284 nM (active) and 330 nM (active)
DU-145
  GI50: < 0.01 µM (active)
SR
  GI50: 644 nM (active) and 410 nM (active)
HCT-116
  GI50: 631 nM (active) and 363 nM (active)
LOX IMVI
  GI50: 430 nM (active) and 238 nM (active)
EKVX
  GI50: 975 nM (active) and 1.27 µM (inactive)
MOLT-4
  GI50: 1.88 µM (inactive) and 1.61 µM (inactive)
KM-20L2
  GI50: 482 nM (active) and 318 nM (active)
UACC-257
  GI50: 324 nM (active) and 555 nM (active)
OVCAR-3
  GI50: 395 nM (active) and 783 nM (active)
SW-620
  GI50: 334 nM (active) and 541 nM (active)
Hs-578T
  GI50: 0.0485 µM (active)
K562
  GI50: 841 nM (active) and 504 nM (active)
NCI-H460
  GI50: 288 nM (active) and 543 nM (active)
OVCAR-8
  GI50: 1.3 µM (inactive) and 2.13 µM (inactive)
Malme-3M
  GI50: 536 nM (active) and 329 nM (active)
MDA-MB-435
  GI50: < 0.01 µM (active)

From ChEMBL document CHEMBL1201862, “PubChem BioAssay data set” (2004)
